What was measured:
Assay in all cases: Screen Quest Fluo-8 No Wash Calcium Assay (Bz-ATP evoked Ca2+ influx, FLIPR)
Format in all cases: cell-based
P2X7 receptor [1] = target: T1, P2X7 receptor (Homo sapiens, UniProt Q99572); parameters: hP2X7 (IC50; nM); other: hP2X7; HEK-293 cells stably transfected with P2X7 receptor, Bz-ATP at EC80, Fluo-8 NW; potency; details: hP2X7; HEK-293 cells stably transfected with P2X7 receptor, Bz-ATP at EC80, Fluo-8 NW; potency ranges A-D
T1 sequence (Q99572 1-595): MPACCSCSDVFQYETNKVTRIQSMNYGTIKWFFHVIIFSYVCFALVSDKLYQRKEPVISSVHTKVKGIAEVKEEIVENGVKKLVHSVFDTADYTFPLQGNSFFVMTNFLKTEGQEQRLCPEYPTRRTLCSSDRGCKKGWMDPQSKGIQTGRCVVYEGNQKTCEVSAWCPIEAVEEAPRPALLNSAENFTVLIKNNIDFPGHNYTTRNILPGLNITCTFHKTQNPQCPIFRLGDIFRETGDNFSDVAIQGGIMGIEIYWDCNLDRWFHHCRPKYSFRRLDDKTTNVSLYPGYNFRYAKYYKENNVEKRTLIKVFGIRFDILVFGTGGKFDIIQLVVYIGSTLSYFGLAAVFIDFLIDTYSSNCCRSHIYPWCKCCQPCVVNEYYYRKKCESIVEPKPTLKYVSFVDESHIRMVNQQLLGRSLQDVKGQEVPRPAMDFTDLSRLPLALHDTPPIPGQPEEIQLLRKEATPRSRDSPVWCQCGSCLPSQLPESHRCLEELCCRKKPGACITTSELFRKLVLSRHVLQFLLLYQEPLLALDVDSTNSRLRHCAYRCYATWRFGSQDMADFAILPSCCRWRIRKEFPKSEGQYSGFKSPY
Description: (§1) Extracellular binding of Bz-ATP to P2X7 receptor opens the channel and allows Ca2+ influx into the cells. […] Once inside the cell, the lipophilic blocking groups of Fluo-8 are cleaved by non-specific cell esterases, resulting in a negatively-charged fluorescent dye that stays inside cells. Its fluorescence increases upon binding to calcium.
(§2) HEK-293 cells stably transfected with P2X7 receptor were seeded overnight in growth medium at 10,000 to 20,000 cell/well in 384-well plate. 24 hours later, the medium was removed and the cells were pre-loaded at RT for 1 hour with 20 μL/w of Fluo-8 NW. Then 10 μL/w of tests compounds and reference antagonist A438079 at 3×-concentration were injected with the […] and the kinetic response over a period of five minutes was monitored. A second injection of 15 μL/w of 3× reference activator (Bz-ATP at EC80) was performed with the […] and the signal of the emitted fluorescence was recorded for additional three minutes. All the experiment was carried out in a Low Divalent Cation Assay Buffer (0.3 mM Ca^2+ and 0 mM Mg^2+). The effect of the test compounds was measured as percent inhibition vs the reference antagonist and IC50 values were calculated accordingly.

P2X7 receptor [2] = target: T2, P2X7 receptor (Mus musculus, UniProt Q9Z1M0); details: mP2X7; HEK-293 cells stably transfected with P2X7 receptor, Bz-ATP at EC80, Fluo-8 NW; potency ranges A-D
T2 construct: mP2X7 (IC50; nM); other: mP2X7; HEK-293 cells stably transfected with P2X7 receptor, Bz-ATP at EC80, Fluo-8 NW; potency
T2 sequence (Q9Z1M0 1-595): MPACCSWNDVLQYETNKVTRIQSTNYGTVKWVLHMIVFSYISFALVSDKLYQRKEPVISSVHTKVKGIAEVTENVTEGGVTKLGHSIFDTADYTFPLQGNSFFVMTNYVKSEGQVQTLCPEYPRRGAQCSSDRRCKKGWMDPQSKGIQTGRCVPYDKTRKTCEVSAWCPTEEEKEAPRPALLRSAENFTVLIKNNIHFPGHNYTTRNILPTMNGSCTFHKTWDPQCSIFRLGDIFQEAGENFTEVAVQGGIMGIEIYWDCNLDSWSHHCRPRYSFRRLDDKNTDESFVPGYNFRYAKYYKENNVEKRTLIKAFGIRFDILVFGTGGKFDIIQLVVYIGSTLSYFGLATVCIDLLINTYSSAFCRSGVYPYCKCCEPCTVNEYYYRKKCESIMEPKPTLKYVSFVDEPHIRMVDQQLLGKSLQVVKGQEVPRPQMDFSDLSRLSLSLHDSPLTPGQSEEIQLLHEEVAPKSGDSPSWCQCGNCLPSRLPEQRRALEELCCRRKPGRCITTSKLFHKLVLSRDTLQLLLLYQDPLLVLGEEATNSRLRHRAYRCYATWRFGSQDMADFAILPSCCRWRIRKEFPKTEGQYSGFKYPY
Description: as §1, §2

P2X7 receptor [3] = target: T3, P2X7 receptor (Rattus norvegicus, UniProt Q64663); details: rP2X7; HEK-293 cells stably transfected with P2X7 receptor, Bz-ATP at EC80, Fluo-8 NW; potency ranges A-D
T3 construct: rP2X7 (IC50; nM); other: rP2X7; HEK-293 cells stably transfected with P2X7 receptor, Bz-ATP at EC80, Fluo-8 NW; potency
T3 sequence (Q64663 1-595): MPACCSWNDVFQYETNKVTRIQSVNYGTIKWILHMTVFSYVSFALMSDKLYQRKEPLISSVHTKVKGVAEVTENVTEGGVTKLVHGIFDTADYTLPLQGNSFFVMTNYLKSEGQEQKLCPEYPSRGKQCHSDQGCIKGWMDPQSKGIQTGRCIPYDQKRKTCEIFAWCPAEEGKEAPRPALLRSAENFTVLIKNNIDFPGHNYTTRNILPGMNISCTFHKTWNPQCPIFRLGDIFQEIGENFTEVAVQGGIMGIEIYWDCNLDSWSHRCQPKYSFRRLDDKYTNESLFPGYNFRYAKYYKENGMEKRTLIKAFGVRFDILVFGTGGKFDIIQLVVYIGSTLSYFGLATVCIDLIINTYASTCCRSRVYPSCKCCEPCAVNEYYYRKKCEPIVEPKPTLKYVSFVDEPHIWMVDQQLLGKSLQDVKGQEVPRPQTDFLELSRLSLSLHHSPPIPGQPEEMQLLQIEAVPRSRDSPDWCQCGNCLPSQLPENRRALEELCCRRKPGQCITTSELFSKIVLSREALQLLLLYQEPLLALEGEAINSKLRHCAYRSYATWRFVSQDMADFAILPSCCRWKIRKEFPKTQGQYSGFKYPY
Description: as §1, §2

`O=c1onc(Cc2c(F)cccc2Cl)n1Cc1cccnc1` [Example 42, 3-[(2-chloro-6-fluorophenyl)methyl]-4-(pyridin-3-ylmethyl)-4,5-dihydro-1,2,4-oxadiazol-5-one] showed an IC50 (P2X7 receptor [1]) of over 10000 nM, an IC50 (P2X7 receptor [2]) of over 10000 nM and an IC50 (P2X7 receptor [3]) of over 10000 nM.

In the case of `O=c1onc(Cc2c(F)cccc2Cl)n1Cc1ccncc1` [Example 43, 3-[(2-chloro-6-fluorophenyl)methyl]-4-(pyridin-4-ylmethyl)-4,5-dihydro-1,2,4-oxadiazol-5-one], the IC50 (P2X7 receptor [1]) is reported as over 10000 nM, the IC50 (P2X7 receptor [2]) is reported as over 10000 nM and the IC50 (P2X7 receptor [3]) is reported as over 10000 nM.

`O=c1onc(Cc2c(F)cccc2Cl)n1Cc1ccoc1` [Example 44, 3-[(2-chloro-6-fluorophenyl)methyl]-4-(furan-3-ylmethyl)-4,5-dihydro-1,2,4-oxadiazol-5-one] was tested, and the IC50 (P2X7 receptor [1]) was 1000 to 10000 nM, the IC50 (P2X7 receptor [2]) was over 10000 nM and the IC50 (P2X7 receptor [3]) was 1000 to 10000 nM.

Work on `O=c1onc(Cc2c(F)cccc2Cl)n1Cc1ncc(F)cn1` [Example 45, 3-[(2-chloro-6-fluorophenyl)methyl]-4-[(5-fluoropyrimidin-2-yl)methyl]-4,5-dihydro-1,2,4-oxadiazol-5-one] yielded an IC50 (P2X7 receptor [1]) of over 10000 nM, an IC50 (P2X7 receptor [2]) of over 10000 nM and an IC50 (P2X7 receptor [3]) of over 10000 nM.

`Cc1cc(Cn2c(Cc3c(F)cccc3Cl)noc2=O)n(C)n1` [Example 46, 3-[(2-chloro-6-fluorophenyl)methyl]-4-[(1,3-dimethyl-1H-pyrazol-5-yl)methyl]-4,5-dihydro-1,2,4-oxadiazol-5-one] was tested, and the IC50 (P2X7 receptor [1]) was over 10000 nM, the IC50 (P2X7 receptor [2]) was over 10000 nM and the IC50 (P2X7 receptor [3]) was over 10000 nM.

`Cn1ccnc1Cn1c(Cc2c(F)cccc2Cl)noc1=O` [Example 47, 3-[(2-chloro-6-fluorophenyl)methyl]-4-[(1-methyl-1H-imidazol-2-yl)methyl]-4,5-dihydro-1,2,4-oxadiazol-5-one] was tested, and the IC50 (P2X7 receptor [1]) was over 10000 nM, the IC50 (P2X7 receptor [2]) was over 10000 nM and the IC50 (P2X7 receptor [3]) was over 10000 nM.

Work on `O=c1onc(Cc2ccc(F)cc2)n1Cc1cccc(Cl)c1Cl` [Example 50, 4-[(2,3-dichlorophenyl)methyl]-3-[(4-fluorophenyl)methyl]-4,5-dihydro-1,2,4-oxadiazol-5-one] yielded an IC50 (P2X7 receptor [1]) of over 10000 nM, an IC50 (P2X7 receptor [2]) of over 10000 nM and an IC50 (P2X7 receptor [3]) of over 10000 nM.

`O=c1onc(Cc2ccc(F)cc2)n1Cc1ccc(F)cc1Cl` [Example 51, 4-[(2-chloro-4-fluorophenyl)methyl]-3-[(4-fluorophenyl)methyl]-4,5-dihydro-1,2,4-oxadiazol-5-one] gave an IC50 (P2X7 receptor [1]) of 1000 to 10000 nM, an IC50 (P2X7 receptor [2]) of 1000 to 10000 nM and an IC50 (P2X7 receptor [3]) of 1000 to 10000 nM.

`O=c1onc(Cc2ccc(F)cc2)n1Cc1cccc(C(F)(F)F)c1Cl` [Example 52, 4-{[2-chloro-3-(trifluoromethyl)phenyl]methyl}-3-[(4-fluorophenyl)methyl]-4,5-dihydro-1,2,4-oxadiazol-5-one] gave an IC50 (P2X7 receptor [1]) of over 10000 nM, an IC50 (P2X7 receptor [2]) of over 10000 nM and an IC50 (P2X7 receptor [3]) of over 10000 nM.

Work on `O=c1onc(Cc2ccc(F)cc2)n1Cc1ccc(F)cc1F` [Example 53, 4-[(2,4-difluorophenyl)methyl]-3-[(4-fluorophenyl)methyl]-4,5-dihydro-1,2,4-oxadiazol-5-one] yielded an IC50 (P2X7 receptor [1]) of over 10000 nM, an IC50 (P2X7 receptor [2]) of over 10000 nM and an IC50 (P2X7 receptor [3]) of 200 to 1000 nM.

Molecule `O=c1onc(Cc2ccc(F)cc2)n1Cc1ccc(F)cc1` [Example 54, bis[(4-fluorophenyl)methyl]-4,5-dihydro-1,2,4-oxadiazol-5-one] has an IC50 (P2X7 receptor [1]) of 1000 to 10000 nM, an IC50 (P2X7 receptor [2]) of over 10000 nM and an IC50 (P2X7 receptor [3]) of over 10000 nM.

In the case of `O=c1onc(Cc2c(F)cccc2Cl)n1Cc1ccccc1F` [Example 56, 3-[(2-chloro-6-fluorophenyl)methyl]-4-[(2-fluorophenyl)methyl]-4,5-dihydro-1,2,4-oxadiazol-5-one], the IC50 (P2X7 receptor [1]) is reported as 1000 to 10000 nM, the IC50 (P2X7 receptor [2]) is reported as 1000 to 10000 nM and the IC50 (P2X7 receptor [3]) is reported as 1000 to 10000 nM.

For `COc1cccc(Cn2c(Cc3c(F)cccc3Cl)noc2=O)c1` [Example 57, 3-[(2-chloro-6-fluorophenyl)methyl]-4-[(3-methoxyphenyl)methyl]-4,5-dihydro-1,2,4-oxadiazol-5-one], the IC50 (P2X7 receptor [1]) was 1000 to 10000 nM, the IC50 (P2X7 receptor [2]) was 1000 to 10000 nM and the IC50 (P2X7 receptor [3]) was 1000 to 10000 nM.

`O=c1onc(Cc2c(F)cccc2Cl)n1Cc1cccc(C(F)(F)F)c1Cl` [Example 58, 4-{[2-chloro-3-(trifluoromethyl)phenyl]methyl}-3-[(2-chloro-6-fluorophenyl)methyl]-4,5-dihydro-1,2,4-oxadiazol-5-one] gave an IC50 (P2X7 receptor [1]) of 1000 to 10000 nM, an IC50 (P2X7 receptor [2]) of 1000 to 10000 nM and an IC50 (P2X7 receptor [3]) of 1000 to 10000 nM.

Work on `O=c1onc(Cc2c(F)cccc2Cl)n1Cc1ccccn1` [Example 62, 3-[(2-chloro-6-fluorophenyl)methyl]-4-(pyridin-2-ylmethyl)-4,5-dihydro-1,2,4-oxadiazol-5-one] yielded an IC50 (P2X7 receptor [1]) of over 10000 nM, an IC50 (P2X7 receptor [2]) of over 10000 nM and an IC50 (P2X7 receptor [3]) of over 10000 nM.

Molecule `O=c1onc(Cc2c(F)cccc2Cl)n1Cc1ccc(C(F)(F)F)cc1` [Example 63, 3-[(2-chloro-6-fluorophenyl)methyl]-4-{[4-(trifluoromethyl)phenyl]methyl}-4,5-dihydro-1,2,4-oxadiazol-5-one] has an IC50 (P2X7 receptor [1]) of 1000 to 10000 nM, an IC50 (P2X7 receptor [2]) of 1000 to 10000 nM and an IC50 (P2X7 receptor [3]) of 1000 to 10000 nM.

With `Cc1nc(C(F)(F)F)ccc1Cn1c(Cc2c(F)cccc2Cl)noc1=O` [Example 64, 3-[(2-chloro-6-fluorophenyl)methyl]-4-{[2-methyl-6-(trifluoromethyl)pyridin-3-yl]methyl}-4,5-dihydro-1,2,4-oxadiazol-5-one] the IC50 (P2X7 receptor [1]) was 1000 to 10000 nM, the IC50 (P2X7 receptor [2]) was over 10000 nM and the IC50 (P2X7 receptor [3]) was over 10000 nM.

`Cc1ccc(Cn2c(Cc3c(F)cccc3Cl)noc2=O)cc1` [Example 67, 3-[(2-chloro-6-fluorophenyl)methyl]-4-[(4-methylphenyl)methyl]-4,5-dihydro-1,2,4-oxadiazol-5-one] gave an IC50 (P2X7 receptor [1]) of 1000 to 10000 nM, an IC50 (P2X7 receptor [2]) of 1000 to 10000 nM and an IC50 (P2X7 receptor [3]) of 1000 to 10000 nM.

Work on `COc1ccc(Cn2c(Cc3c(F)cccc3Cl)noc2=O)cc1` [Example 68, 3-[(2-chloro-6-fluorophenyl)methyl]-4-[(4-methoxyphenyl)methyl]-4,5-dihydro-1,2,4-oxadiazol-5-one] yielded an IC50 (P2X7 receptor [1]) of 1000 to 10000 nM, an IC50 (P2X7 receptor [2]) of over 10000 nM and an IC50 (P2X7 receptor [3]) of over 10000 nM.

From patent US11623919B2, “Heterocyclic P2X7 antagonists” (AXXAM S.P.A., priority 2017, dated 2023)
